Publication PMC6858373 (Scientific Reports, 2019)
Counter-ions that a name gives are not always drawn. Like-named read-outs stand apart in the source and are kept apart here.

How the values were obtained:
[1] = tested on: Clone V cells
[2] = biological target: full-length P. pyralis luciferase (Photinus pyralis, UniProt P08659, K549A/L550V/N119G/N50D/S548I); assay type: cell-based
[3] = biological target: T1, FGF14:Nav1.6 C-tail complex (Homo sapiens, UniProt Q92915+Q9UQD0); test: Split-luciferase complementation assay (LCA) in Clone V double stable HEK293 cells; assay type: cell-based; details: for Split Luciferase Assay % Lum Set 1 / Split Luciferase Assay Z-score Set 1: biological replicate Set 1; for Split Luciferase Assay % Lum Set 1 / Split Luciferase Assay %Lum Set 2: normalized to on-plate 0.3% DMSO controls (n=16 per plate); for Split Luciferase Assay %Lum Set 2 / Split Luciferase Assay Z-score Set 2: biological replicate Set 2; for Split Luciferase Assay Z-score Set 1 / Split Luciferase Assay Z-score Set 2: normalized to on-plate 0.3% DMSO controls; for Split Luciferase Assay %Lum Avg: average of Set 1 and Set 2, normalized to 0.3% DMSO controls
T1 construct: polymerase chain reaction (PCR) amplification of the FGF14 open reading frame (nt 1–855); C-terminal fragment of Nav1.6 (amino acids 1763–1976) fused with CD4ΔC-tail (amino acids 1–395); expressed in transfected cells

[4] = CC_NCI screening, full-length luciferase counter-screen luminescence, normalized to on-plate 0.3% DMSO controls
[5] = CC_NCI screening, full-length luciferase counter-screen, normalized to on-plate 0.3% DMSO controls
[6] = CC_NCI screening, LCA luminescence
[7] = CC_NCI screening, normalized to on-plate 0.3% DMSO controls

T1 sequence (Q92915 1-252 isoform Q92915-2): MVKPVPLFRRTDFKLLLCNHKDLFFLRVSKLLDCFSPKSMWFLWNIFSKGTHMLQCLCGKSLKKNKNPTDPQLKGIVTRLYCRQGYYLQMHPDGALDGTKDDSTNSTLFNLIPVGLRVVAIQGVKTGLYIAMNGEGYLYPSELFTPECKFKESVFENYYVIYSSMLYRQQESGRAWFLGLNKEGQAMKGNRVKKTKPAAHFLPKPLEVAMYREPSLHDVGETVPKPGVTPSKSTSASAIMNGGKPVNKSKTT
T1 sequence (Q9UQD0 1763-1976 limits assumed): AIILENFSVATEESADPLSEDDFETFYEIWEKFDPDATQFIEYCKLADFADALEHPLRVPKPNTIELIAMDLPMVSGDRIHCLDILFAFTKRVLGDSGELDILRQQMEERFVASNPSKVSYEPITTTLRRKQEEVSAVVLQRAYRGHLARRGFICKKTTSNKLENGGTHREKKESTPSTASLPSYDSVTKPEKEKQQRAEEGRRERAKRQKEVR
Sequence of full-length P. pyralis luciferase (P08659 whole entry N50D/N119G/S548I/K549A/L550V, looked up): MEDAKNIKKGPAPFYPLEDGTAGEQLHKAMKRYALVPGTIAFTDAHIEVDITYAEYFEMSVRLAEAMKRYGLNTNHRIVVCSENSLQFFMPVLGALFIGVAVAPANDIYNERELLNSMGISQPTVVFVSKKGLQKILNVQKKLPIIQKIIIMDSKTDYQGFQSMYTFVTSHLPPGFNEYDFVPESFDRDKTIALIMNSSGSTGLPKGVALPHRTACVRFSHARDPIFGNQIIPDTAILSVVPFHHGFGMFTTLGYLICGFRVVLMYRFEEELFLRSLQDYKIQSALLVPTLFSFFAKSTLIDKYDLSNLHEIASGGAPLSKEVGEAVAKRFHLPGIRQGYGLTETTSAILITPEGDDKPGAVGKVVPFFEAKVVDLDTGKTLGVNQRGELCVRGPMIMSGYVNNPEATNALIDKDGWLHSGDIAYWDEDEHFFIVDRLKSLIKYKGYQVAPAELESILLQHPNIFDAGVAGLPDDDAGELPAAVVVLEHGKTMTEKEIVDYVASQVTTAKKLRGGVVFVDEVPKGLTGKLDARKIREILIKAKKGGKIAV

Compound	Toxicity Assay % Fluor ([1]; human, 16 h, 30 µM)	Toxicity Assay Z-score ([1]; human, 16 h, 30 µM)	Luciferase Assay % Lum [2, 4]	Luciferase Assay Z-score [2, 5]	Split Luciferase Assay % Lum Set 1 [3, 6]	Split Luciferase Assay %Lum Set 2 [3, 6]	Split Luciferase Assay Z-score Set 1 ([3]; CC_NCI screening, LCA)	Split Luciferase Assay Z-score Set 2 ([3]; CC_NCI screening, LCA)	Split Luciferase Assay %Lum Avg ([3]; CC_NCI screening)	further results
Cc1ccc(-c2cc(C(F)(F)F)nn2-c2ccc(S(N)(=O)=O)cc2)cc1 [Celecoxib]	88.16%	-1.66	60.07%	-5.11	43.81%	44.73%	-4.54	-4.50	44.27%	–
NC(=O)c1ccc(I)c([N+](=O)[O-])c1 [BSI-201]	93.94%	-0.85	101.73%	0.22	102.51%	112.35%	0.20	1.01	107.43%	–
COc1cccc2c1C(=O)c1c(O)c3c(c(O)c1C2=O)C[C@@](O)(C(=O)CO)C[C@@H]3O[C@H]1C[C@H](N)[C@H](O)[C@H](C)O1 [Doxorubicin hydrochloride]	94.10%	-0.82	78.74%	–	49.25%	58.26%	-4.10	-3.40	53.75%	–
CO[C@@H]1[C@H](N(C)C(=O)c2ccccc2)C[C@H]2O[C@]1(C)n1c3ccccc3c3c4c(c5c6ccccc6n2c5c31)C(=O)NC4 [PKC412]	83.94%	-2.25	89.50%	-1.34	54.68%	67.62%	-3.66	-2.63	61.15%	–
CC(C)[C@H](NS(=O)(=O)c1ccc(-c2ccc(Br)cc2)cc1)C(=O)O [PD 166793]	–	–	–	–	–	–	–	–	–	Toxicity Assay % Fluor (CTB cell viability fluorescence) [1]: 105.53%; Toxicity Assay Z-score (CTB cell viability) [1]: 0.77; Luciferase Assay % Lum (full-length luciferase counter-screen) [2, 7]: 99.99%; Luciferase Assay Z-score (full-length luciferase counter-screen) [2, 7]: 0.00; Split Luciferase Assay Z-score Set 1 ([3]; CC_NCI screening): 0.38; Split Luciferase Assay % Lum Set 1 ([3]; CC_NCI screening): 104.69%; Split Luciferase Assay Z-score Set 2 ([3]; CC_NCI screening): -1.11; Split Luciferase Assay %Lum Set 2 ([3]; CC_NCI screening): 86.35%; Split Luciferase Assay %Lum Avg [3]: 95.52%
O=C(CCCCCCC(=O)Nc1ccccc1)NO [VORINOSTAT]	–	–	–	–	–	–	–	–	–	Toxicity Assay % Fluor (CTB cell viability fluorescence) [1]: 108.87%; Toxicity Assay Z-score (CTB cell viability) [1]: 1.24; Luciferase Assay % Lum (full-length luciferase counter-screen) [2, 7]: 84.44%; Luciferase Assay Z-score (full-length luciferase counter-screen) [2, 7]: -1.99; Split Luciferase Assay Z-score Set 1 ([3]; CC_NCI screening): 0.47; Split Luciferase Assay % Lum Set 1 ([3]; CC_NCI screening): 105.78%; Split Luciferase Assay Z-score Set 2 ([3]; CC_NCI screening): -1.96; Split Luciferase Assay %Lum Set 2 ([3]; CC_NCI screening): 75.94%; Split Luciferase Assay %Lum Avg [3]: 90.86%
COc1ccc(Cl)cc1[C@]1(F)C(=O)Nc2cc(C(F)(F)F)ccc21 [BMS 204352]	103.30%	0.46	36.55%	-8.12	10.11%	17.69%	-7.26	-6.70	13.90%	–
c1cc(CN2CCCNCCNCCCNCC2)ccc1CN1CCCNCCNCCCNCC1 [Plerixafor]	92.88%	-1.00	–	–	112.30%	111.31%	0.99	0.92	111.81%	Luciferase Assay % Lum [2]: 97.43%; Luciferase Assay Z-score [2]: -0.33
Cc1nc2sccn2c(=O)c1CCN1CCC(=C(c2ccccc2)c2ccc(F)cc2)CC1 [Compound R59022]	–	–	–	–	–	–	–	–	–	Toxicity Assay % Fluor (CTB cell viability fluorescence) [1]: 113.72%; Toxicity Assay Z-score (CTB cell viability) [1]: 1.92; Luciferase Assay % Lum (full-length luciferase counter-screen) [2, 7]: 55.65%; Luciferase Assay Z-score (full-length luciferase counter-screen) [2, 7]: -5.68; Split Luciferase Assay Z-score Set 1 ([3]; CC_NCI screening): -1.91; Split Luciferase Assay % Lum Set 1 ([3]; CC_NCI screening): 76.42%; Split Luciferase Assay Z-score Set 2 ([3]; CC_NCI screening): -0.10; Split Luciferase Assay %Lum Set 2 ([3]; CC_NCI screening): 98.83%; Split Luciferase Assay %Lum Avg [3]: 87.63%
Cc1cn(-c2cc(NC(=O)c3ccc(C)c(Nc4nccc(-c5cccnc5)n4)c3)cc(C(F)(F)F)c2)cn1 [Nilotinib]	85.20%	-2.07	94.65%	-0.68	126.43%	113.39%	2.14	1.09	119.91%	–
N#C/C(=C/c1ccc(O)c(O)c1)C(=O)NCc1ccccc1 [AG 490]	–	–	85.62%	-1.84	118.82%	120.68%	1.52	1.68	119.75%	Toxicity Assay % Fluor [1]: 89.42%; Toxicity Assay Z-score [1]: -1.48
COc1cc2c(cc1OC)[C@@H]1C(=O)c3ccc4c(c3O[C@@H]1CO2)C=CC(C)(C)O4 [DEGUELIN]	–	–	66.30%	-4.32	27.50%	26.01%	-5.86	-6.02	26.76%	Toxicity Assay % Fluor ([1]; human): 100.58%; Toxicity Assay Z-score ([1]; human): 0.08
O=C1c2c(O)ccc(O)c2C(=O)c2c(NCCNCCO)ccc(NCCNCCO)c21 [Mitoxantrone]	90.67%	-1.30	40.29%	-7.65	5.76%	15.60%	-7.62	-6.87	10.68%	–
Cl.N[C@@H](Cc1ccc(N(CCCl)CCCl)cc1)C(=O)O [Melphalan hydrochloride]	–	–	–	–	–	–	–	–	–	Toxicity Assay % Fluor (CTB cell viability fluorescence) [1]: 107.21%; Toxicity Assay Z-score (CTB cell viability) [1]: 1.01; Luciferase Assay % Lum (full-length luciferase counter-screen) [2, 7]: 85.47%; Luciferase Assay Z-score (full-length luciferase counter-screen) [2, 7]: -1.86; Split Luciferase Assay Z-score Set 1 ([3]; CC_NCI screening): -1.64; Split Luciferase Assay % Lum Set 1 ([3]; CC_NCI screening): 79.68%; Split Luciferase Assay Z-score Set 2 ([3]; CC_NCI screening): -0.10; Split Luciferase Assay %Lum Set 2 ([3]; CC_NCI screening): 98.83%; Split Luciferase Assay %Lum Avg [3]: 89.26%
O=C(/C=C/c1ccc(CN(CCO)CCc2c[nH]c3ccccc23)cc1)NO [NVP LAQ824]	98.78%	-0.17	95.25%	-0.61	93.82%	83.22%	-0.50	-1.36	88.52%	–
OCC1OC(O)CC(O)C1O (centres unmarked) [Compound 2DG]	–	–	91.76%	-1.06	104.69%	130.04%	0.38	2.44	117.36%	Toxicity Assay % Fluor [1]: 93.82%; Toxicity Assay Z-score [1]: -0.86
CO[C@H]1C[C@@H]2CC[C@@H](C)[C@@](O)(O2)C(=O)C(=O)N2CCCC[C@H]2C(=O)O[C@H]([C@H](C)C[C@@H]2CC[C@@H](OC(=O)C(C)(CO)CO)[C@H](OC)C2)CC(=O)[C@H](C)/C=C(\C)[C@@H](O)[C@@H](OC)C(=O)[C@H](C)C[C@H](C)/C=C/C=C/C=C/1C [TEMSIROLIMUS]	87.05%	-1.81	65.73%	-4.39	86.21%	83.22%	-1.11	-1.36	84.72%	–
CC(C)(C#N)c1cc(Cn2cncn2)cc(C(C)(C)C#N)c1 [Anastrozole]	95.38%	-0.65	100.06%	0.01	89.47%	99.87%	-0.85	-0.01	94.67%	–
